Experimental findings from patent US10913727B2, “Modulators of the integrated stress pathway” (Calico Life Sciences LLC, priority 2016, dated 2021) are described below.

The EC50 is the concentration at which the effect is half-maximal.

The assay deals with HEK293T cells carrying the ATF4 luciferase reporter. In words: ATF4-Luc assay, in vitro model of Vanishing Cell White Matter Disease (VWMD). It is filed as cell-based. To be noted: Homo sapiens, HEK-293T, 1 μg/mL tunicamycin, 7 hours, One Glo luminescence. In a few lines:
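Compound at 200 nM and tunicamycin at 1 μg/mL were given together for 7 h to HEK293T cells stably transduced with an ATF4 5′-UTR-driven firefly luciferase reporter. Read-out by luminescence, reported as EC50.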
Regarding `N#Cc1ccnc(C(=O)NC23CC(NC(=O)COc4ccc(Cl)c(F)c4)(C2)C3)c1` [Compound 182, N-{3-[2-(4-chloro-3-fluorophenoxy)acetamido]bicyclo[1.1.1]pentan-1-yl}-4-cyanopyridine-2-carboxamide], the EC50 is 50 to 250 nM. To `CCn1cc(C(=O)NC23CC(NC(=O)COc4ccc(Cl)c(F)c4)(C2)C3)cn1` [Compound 252, N-{3-[2-(4-chloro-3-fluorophenoxy)acetamido]bicyclo[1.1.1]pentan-1-yl}-1-ethyl-1H-pyrazole-4-carboxamide] belongs 250 to 1000 nM; to `CC(=O)NCc1ccc(C(=O)NC23CC(NC(=O)COc4ccc(Cl)c(F)c4)(C2)C3)o1` [Compound 778, 5-(acetamidomethyl)-N-{3-[2-(4-chloro-3-fluorophenoxy)acetamido]bicyclo[1.1.1]pentan-1-yl}furan-2-carboxamide], > 2000 nM; to `O=C(COc1ccc(Cl)c(F)c1)NC12CCC(NC(=O)c3cnc4ccccn34)(CC1)CC2O` (centres unmarked) [Compound 595, N-{4-[2-(4-chloro-3-fluorophenoxy)acetamido]-3-hydroxybicyclo[2.2.2]octan-1-yl}imidazo[1,2-a]pyridine-3-carboxamide], 1000 to 2000 nM. As for `CC(=O)Nc1c(C)nn(C)c1C(=O)NC12CCC(NC(=O)COc3ccc(Cl)c(F)c3)(CC1)C(O)C2` (centres unmarked) [Compound 505, 4-acetamido-N-{4-[2-(4-chloro-3-fluorophenoxy)acetamido]-3-hydroxybicyclo[2.2.2]octan-1-yl}-1,3-dimethyl-1H-pyrazole-5-carboxamide], the EC50 is > 2000 nM.

For `O=C(COc1ccc(Cl)c(F)c1)NC12CC(NC(=O)c3cc4ccccn4n3)(C1)C2` [Compound 119, N-{3-[2-(4-chloro-3-fluorophenoxy)acetamido]bicyclo[1.1.1]pentan-1-yl}pyrazolo[1,5-a]pyridine-2-carboxamide], the 50% effective concentration (EC50) fell in the range of 250 to 1000 nM.

Take `Cc1nc(C(=O)NC23CC(NC(=O)COc4ccc(Cl)c(F)c4)(C2)C3)sc1C` [Compound 470, N-{3-[2-(4-chloro-3-fluorophenoxy)acetamido]bicyclo[1.1.1]pentan-1-yl}-4,5-dimethyl-1,3-thiazole-2-carboxamide]: the concentration giving a half-maximal response (EC50) lay within 50 to 250 nM. To `O=C(COc1ccc(Cl)c(F)c1)NC12CC(NC(=O)c3cnc4sccc4c3)(C1)C2` [Compound 723, N-{3-[2-(4-chloro-3-fluorophenoxy)acetamido]bicyclo[1.1.1]pentan-1-yl}thieno[2,3-b]pyridine-5-carboxamide] belongs 250 to 1000 nM; to `Cc1cc(C(=O)N(C)C23CCC(NC(=O)COc4ccc(Cl)c(F)c4)(CC2)[C@@H](O)C3)on1` [Compound 706, N-{(3S)-4-[2-(4-chloro-3-fluorophenoxy)acetamido]-3-hydroxybicyclo[2.2.2]octan-1-yl}-N,3-dimethyl-1,2-oxazole-5-carboxamide], < 50 nM. To `Cc1cc(C(=O)NC23CC(NC(=O)COc4ccc(Cl)c(F)c4)(C2)C3)n(CC(C)(C)O)n1` [Compound 459, N-{3-[2-(4-chloro-3-fluorophenoxy)acetamido]bicyclo[1.1.1]pentan-1-yl}-1-(2-hydroxy-2-methylpropyl)-3-methyl-1H-pyrazole-5-carboxamide] belongs > 2000 nM. Then `Cn1nnc2cc(C(=O)NC34CC(NC(=O)COc5ccc(Cl)c(F)c5)(C3)C4)ccc21` [Compound 785, N-{3-[2-(4-chloro-3-fluorophenoxy)acetamido]bicyclo[1.1.1]pentan-1-yl}-1-methyl-1H-benzotriazole-5-carboxamide], with > 2000 nM; and `O=C(COc1ccc(Cl)c(F)c1)NC12CC(NC(=O)c3ccc(C(F)(F)F)cn3)(C1)C2` [Compound 120, N-{3-[2-(4-chloro-3-fluorophenoxy)acetamido]bicyclo[1.1.1]pentan-1-yl}-5-(trifluoromethyl)pyridine-2-carboxamide], with 50 to 250 nM; and `CC(=O)Nc1ccc(F)cc1C(=O)NC12CC(NC(=O)COc3ccc(Cl)c(F)c3)(C1)C2` [Compound 765, 2-acetamido-N-{3-[2-(4-chloro-3-fluorophenoxy)acetamido]bicyclo[1.1.1]pentan-1-yl}-5-fluorobenzamide], with 50 to 250 nM. Regarding `Cc1nnc2c(NC34CC(NC(=O)COc5ccc(Cl)c(F)c5)(C3)C4)nccn12` [Compound 465, 2-(4-chloro-3-fluorophenoxy)-N-{3-[(3-methyl[1,2,4]triazolo[4,3-a]pyrazin-8-yl)amino]bicyclo[1.1.1]pentan-1-yl}acetamide], the EC50 was > 2000 nM.

In the case of `O=C(COc1ccc(Cl)c(F)c1)NC12CC(NC(=O)c3ccc(CCC4CC4)cn3)(C1)C2` [Compound 289, N-{3-[2-(4-chloro-3-fluorophenoxy)acetamido]bicyclo[1.1.1]pentan-1-yl}-5-(2-cyclopropylethyl)pyridine-2-carboxamide], the 50% effective concentration (EC50) was < 50 nM. For the molecule `NCc1ccnc(C(=O)NC23CC(NC(=O)COc4ccc(Cl)c(F)c4)(C2)C3)c1` [Compound 193, 4-(aminomethyl)-N-{3-[2-(4-chloro-3-fluorophenoxy)acetamido]bicyclo[1.1.1]pentan-1-yl}pyridine-2-carboxamide], the concentration giving a half-maximal response (EC50) lay within 50 to 250 nM.

Consider `CSCc1ccc(C(=O)NC23CC(NC(=O)COc4ccc(Cl)c(F)c4)(C2)C3)o1` [Compound 830, N-{3-[2-(4-chloro-3-fluorophenoxy)acetamido]bicyclo[1.1.1]pentan-1-yl}-5-[(methylsulfanyl)methyl]furan-2-carboxamide], for which the EC50 was in the range of 50 to 250 nM. Then `Cc1c(-c2cc(C(=O)NC34CC(NC(=O)COc5ccc(Cl)c(F)c5)(C3)C4)no2)cnn1C` [Compound 840, N-{3-[2-(4-chloro-3-fluorophenoxy)acetamido]bicyclo[1.1.1]pentan-1-yl}-5-(1,5-dimethyl-1H-pyrazol-4-yl)-1,2-oxazole-3-carboxamide], with 1000 to 2000 nM; and `Cc1cncc(NC23CC(NC(=O)COc4ccc(Cl)c(F)c4)(C2)C3)n1` [Compound 688, 2-(4-chloro-3-fluorophenoxy)-N-{3-[(6-methylpyrazin-2-yl)amino]bicyclo[1.1.1]pentan-1-yl}acetamide], with > 2000 nM; and `COc1ccc(C(=O)NC23CC(NC(=O)COc4ccc(Cl)c(F)c4)(C2)C3)cc1` [Compound 533, N-{3-[2-(4-chloro-3-fluorophenoxy)acetamido]bicyclo[1.1.1]pentan-1-yl}-4-methoxybenzamide], with 50 to 250 nM.

Turning to `O=C(COc1ccc(Cl)c(F)c1)NC12CCC(NC(=O)c3cc(C4CCCCC4)no3)(CC1)CC2O` (centres unmarked) [Compound 408, N-{4-[2-(4-chloro-3-fluorophenoxy)acetamido]-3-hydroxybicyclo[2.2.2]octan-1-yl}-3-cyclohexyl-1,2-oxazole-5-carboxamide], the EC50 was > 2000 nM. Then `Cc1nc(C)c(C(=O)NC23CC(NC(=O)COc4ccc(Cl)c(F)c4)(C2)C3)s1` [Compound 238, N-{3-[2-(4-chloro-3-fluorophenoxy)acetamido]bicyclo[1.1.1]pentan-1-yl}-2,4-dimethyl-1,3-thiazole-5-carboxamide], with 50 to 250 nM; and `Cc1nn(C)cc1-c1cc(C(=O)NC23CC(NC(=O)COc4ccc(Cl)c(F)c4)(C2)C3)no1` [Compound 865, N-{3-[2-(4-chloro-3-fluorophenoxy)acetamido]bicyclo[1.1.1]pentan-1-yl}-5-(1,3-dimethyl-1H-pyrazol-4-yl)-1,2-oxazole-3-carboxamide], with 1000 to 2000 nM.
